Results taken from US8410163B2, “Substituted 4-amino-5-benzoyl-2-(phenylamino)thiophene-3-carbonitriles and substituted 4-amino-5-benzoyl-2-(phenylamino)thiophene-3-carboxamides as tubulin polymerization inhibitors” (Telik, Inc., priority 2009, dated 2013).
Read-outs that look alike come from different tables or passages of the source.

Experiments:
[1] = system: A549 (human lung adenocarcinoma); assay: Cytotoxicity assay (CellTiter-Glo), A549; assay type: cell-based; conditions: 72 h, A549 cells, three days culture, rounded to 1 significant figure
Method: (§1) The cell lines A549 (human lung adenocarcinoma), OVCAR-3 (human ovarian carcinoma), HL60 (human promyelocytic leukemia), DLD1 (human colon adenocarcinoma) and HCT116 (human colon carcinoma) were obtained from the American Type Culture Collection, Manassas, Va., U.S.A. All products were used in accordance with manufacturer's directions. The histone phosphorylation (p-H3) assay was conducted in duplicate and the cytotoxicity assays were conducted in triplicate, in each case with solvent control.
(§2) Log-phase cells were trypsinized, collected by centrifugation, and resuspended in a small volume of fresh medium, and the density of viable cells was determined following Trypan Blue staining. Cells were diluted in fresh media, the test compounds (concentrations between 0.1 μM and 200 μM, dissolved in DMSO, 50 μL) added immediately after dilution to achieve a final DMSO concentration of 0.5%, then the suspensions added at 150 μL/well to 96-well plates, and incubated overnight to allow attachment in the case of adherent cells. The cells were cultured for three days (about three doubling times). The cells were then collected by centrifugation, and 100 μL of the culture supernatant was replaced by the CellTiter-Glo reagent. After incubation for 15 minutes at room temperature, the plate was read with a luminometer. […] The table gives cytotoxicity IC50s in μM, rounded to 1 significant figure.

[2] = system: OVCAR-3 (human ovarian carcinoma); assay: Cytotoxicity assay (CellTiter-Glo), OVCAR-3; assay type: cell-based; conditions: 72 h, OVCAR-3 cells, three days culture, rounded to 1 significant figure
Method: as §1, §2

[3] = system: DLD1 (human colon adenocarcinoma); assay: Cytotoxicity assay (CellTiter-Glo), DLD1; assay type: cell-based; conditions: DLD-1, 72 h, DLD1 cells, three days culture, rounded to 1 significant figure
Method: as §1, §2

[4] = system: HL60 (human promyelocytic leukemia) xenograft; assay: HL60 xenograft assay, oral administration; assay type: in vivo; conditions: Mus musculus, HL-60, po, nu/nu mice, read-out: inhibition of tumor growth compared to vehicle
Method: (§3) Male athymic nu/nu mice, 6-8 weeks old (about 20 g), were implanted subcutaneously in the right fore flank with about 1×10^7 cells of the HL60 (human promyelocytic leukemia) line that had been grown in antibiotic-free medium for at least two passages. About 6 days after tumor implantation, when the tumor weight was about 50-250 mg, the mice were assigned to treatment groups. Test compounds were suspended at 20 mg/mL in 0.55 wt. % aqueous carboxymethylcellulose. Groups of mice were treated with compounds 2A, 9A, and 12A at 200 mg/Kg by gavage once/day on days 1-5 and 8-10 from the start of treatment, with vehicle control. Tumor growth inhibition was measured on the last day of treatment.
The experiment was conducted generally as described in In vivo Example 1. Groups of mice were treated with compounds 5A, 6A, 7A, 8A, and 10A at 200 mg/Kg by gavage once/day on days 1-5 and 8-10 from the start of treatment, with vehicle control. Tumor growth inhibition was measured the day after the last day of treatment.

[5] = system: HL60 (human promyelocytic leukemia); assay: Cytotoxicity assay (CellTiter-Glo), HL-60; assay type: cell-based; conditions: 72 h, HL-60 cells, three days culture, rounded to 1 significant figure
Method: as §1, §2

[6] = system: P388 and P388/ADR (doxorubicin-resistant) cells; assay: Cross-resistance, cytotoxicity in P388 and P388/ADR cells; assay type: cell-based, mouse; conditions: cytotoxicity in P388/ADR (doxorubicin-resistant) versus P388 cells
Method: Compounds 2A, 9A, and 12A were tested for cross-resistance in the P388 (mouse leukemia) cell line, by assaying its cytotoxicity in both P388 and P388/ADR (doxorubicin-resistant) cells. […] Several of the more cytotoxic compounds of formula A were tested and found not to be substrates for P-glycoprotein, an efflux pump commonly associated with multidrug-resistance in cancer cells.

[7] = system: HCT116 (human colon carcinoma); assay: Cytotoxicity assay (CellTiter-Glo), HCT116; assay type: cell-based; conditions: HCT-116, 72 h, HCT116 cells, three days culture, rounded to 1 significant figure
Method: as §1, §2

tubulin = assay: Inhibition of tubulin polymerization, cell-free fluorescence assay; assay type: biochemical
[8] = system: HCT116 (human colon carcinoma) xenograft; assay: HCT116 xenograft assay, oral administration; assay type: in vivo; conditions: nu/nu mice, 200 mg/Kg by gavage once/day days 1-5 and 8-12, measured 2 days after the last day of treatment
Method: as §3, with “the HCT116” for “the HL60”, “(human colon carcinoma)” for “(human promyelocytic leukemia)”, “About 14-21” for “About 6”, “tumor transplantation,” for “tumor implantation,”, “and 8-12” for “and 8-10”, “measured 2 days after” for “measured on”

[9] = 200 mg/Kg by gavage once/day days 1-5 and 8-10, measured the day after the last day of treatment (In vivo Example 3)
[10] = 200 mg/Kg by gavage once/day days 1-5 and 8-10, measured on the last day of treatment (In vivo Example 1)

| Structure (SMILES) | IC50 [1] [nM] | IC50 [5] [nM] | further results |
| --- | --- | --- | --- |
| COc1ccc(Nc2sc(C(=O)c3ccc(OCCN(C)C)cc3)c(N)c2C#N)cc1 [Compound 39A] | 2000 |  |  |
| COc1ccc(Nc2sc(C(=O)c3ccc(OC)cc3OC)c(N)c2C#N)c(OC)c1 [Compound 22A] | 200 |  |  |
| COc1ccc(C(=O)c2sc(Nc3ccc4c(c3)OCO4)c(C#N)c2N)cc1 [Compound 10A] | 40 | 40 | IC50 [2]: 40 nM; IC50 [3]: 30 nM; inhibition in vivo at 200 mg/kg [4, 9]: 67% |
| COc1ccc(Nc2sc(C(=O)c3ccc(OC)cc3)c(N)c2C(N)=O)cc1 [Compound 8A] | 40 | 30 | IC50 [2]: 10 nM; IC50 [3]: 7 nM; inhibition in vivo at 200 mg/kg [4, 9]: 10% |
| N#Cc1c(Nc2ccc3c(c2)OCO3)sc(C(=O)c2ccc(Br)cc2)c1N [Compound 23A] | 300 |  |  |
| COc1cc2c(c(OC)c1OC)-c1ccc(OC)c(=O)cc1[C@@H](NC(C)=O)CC2 [colchicine] |  |  | resistance ratio [6]: 70 fold |
| CC(C)c1ccc(Nc2sc(C(=O)c3ccc(Cl)cc3)c(N)c2C#N)cc1 [Compound 29A] | 800 |  |  |
| N#Cc1c(Nc2ccc(C(F)(F)F)cc2)sc(C(=O)c2ccc(Cl)cc2)c1N [Compound 31A] | 1000 |  |  |
| N#Cc1c(Nc2ccc3c(c2)OCO3)sc(C(=O)c2cccc(Cl)c2)c1N [Compound 35A] | 1000 |  |  |
| CCOc1ccc(Nc2sc(C(=O)c3ccc(Cl)cc3)c(N)c2C#N)cc1 [Compound 4A] | 20 | 40 | IC50 [2]: 30 nM; IC50 [3]: 30 nM; IC50 [7]: 90 nM |
| COC(=O)c1ccc(Nc2sc(C(=O)c3ccc(Cl)cc3)c(N)c2C#N)cc1 [Compound 30A] | 1000 |  |  |
| CCN(CC)c1ccc(C(=O)c2sc(Nc3ccc4c(c3)OCO4)c(C#N)c2N)cc1 [Compound 9A] | 40 | 40 | IC50 [2]: 20 nM; IC50 [3]: 20 nM; inhibition of tubulin polymerization (cell-free) (tubulin): inhibition of tubulin polymerization; inhibition of tumor growth compared to vehicle [8]: 36%; inhibition in vivo at 200 mg/kg [4, 10]: 43%; IC50 [7]: 40 nM |
| COc1ccc(C(=O)c2sc(Nc3ccc4c(c3)OCO4)c(C#N)c2N)cc1OC [Compound 16A] | 100 | 60 |  |
| N#Cc1cccc(C(=O)c2sc(Nc3ccc4c(c3)OCO4)c(C#N)c2N)c1 [Compound 34A] | 1000 |  |  |
| COc1ccccc1C(=O)c1sc(Nc2ccc3c(c2)OCO3)c(C#N)c1N [Compound 21A] | 200 |  | inhibition of tubulin polymerization (cell-free) (tubulin): inhibition of tubulin polymerization |
| N#Cc1c(Nc2ccc3c(c2)OCO3)sc(C(=O)c2cccc(Br)c2)c1N [Compound 41A] | 2000 |  |  |
| COc1ccc(Nc2sc(C(=O)c3ccc(Cl)cc3)c(N)c2C#N)cc1OC [Compound 5A] | 20 | 20 | IC50 [2]: 20 nM; IC50 [3]: 20 nM; inhibition in vivo at 200 mg/kg [4, 9]: 45%; IC50 [7]: 20 nM |
| COc1ccc(C(=O)c2sc(Nc3ccc(OC)c(OC)c3)c(C#N)c2N)cc1 [Compound 28A] | 700 |  |  |
| N#Cc1c(Nc2ccc3c(c2)OCO3)sc(C(=O)c2ccc(F)cc2)c1N [Compound 33A] | 1000 |  |  |
| CCOc1ccc(Nc2sc(C(=O)c3ccc(OC)cc3OC)c(N)c2C#N)cc1 [Compound 6A, 4-amino-5-(2,4-dimethoxybenzoyl)-2-[(4-ethoxyphenyl)amino]thiophene-3-carbonitrile] | 30 | 50 | inhibition in vivo at 200 mg/kg [4, 9]: 89%; IC50 [7]: 30 nM |

| Structure (SMILES) | IC50 [1] [nM] | IC50 [5] [nM] | further results |
| --- | --- | --- | --- |
| CC[C@]1(O)C[C@@H]2CN(CCc3c([nH]c4ccccc34)[C@@](C(=O)OC)(c3cc4c(cc3OC)N(C)[C@H]3[C@@](O)(C(=O)OC)[C@H](OC(C)=O)[C@]5(CC)C=CCN6CC[C@]43[C@@H]65)C2)C1 [vinblastine] |  |  | resistance ratio [6]: 50 fold |
| CCN(CC)c1ccc(C(=O)c2sc(Nc3ccc(OC)c(OC)c3)c(C#N)c2N)cc1 [Compound 11A] | 50 |  |  |
| CCOc1ccc(Nc2sc(C(=O)c3ccc(Cl)cc3)c(N)c2C(N)=O)cc1 [Compound 13A] | 60 | 30 |  |
| COc1cccc2c1C(=O)c1c(O)c3c(c(O)c1C2=O)C[C@@](O)(C(=O)CO)C[C@@H]3O[C@H]1C[C@H](N)[C@H](O)[C@H](C)O1 [doxorubicin] |  |  | resistance ratio [6]: 260 fold |
| N#Cc1c(Nc2ccc3c(c2)OCO3)sc(C(=O)c2ccc(Cl)cc2)c1N [Compound 24A] | 300 | 80 |  |
| N#Cc1c(Nc2ccc([N+](=O)[O-])cc2)sc(C(=O)c2ccc(Cl)cc2)c1N [Compound 37A] | 2000 |  |  |
| COc1ccc(Nc2sc(C(=O)c3ccc(Cl)cc3)c(N)c2C(N)=O)cc1 [Compound 1A, 4-amino-5-(4-chlorobenzoyl)-2-[(4-methoxyphenyl)amino]thiophene-3-carboxamide] | 10 | 10 | IC50 [2]: 10 nM; IC50 [3]: 7 nM; IC50 [7]: 10 nM |
| Cc1ccc(C(=O)c2sc(Nc3ccc4c(c3)OCO4)c(C#N)c2N)cc1 [Compound 19A] | 200 |  |  |
| CCOc1ccc(Nc2sc(C(=O)c3ccc(OC)cc3)c(N)c2C#N)cc1 [Compound 17A] | 100 | 100 |  |
| CCN(CC)c1ccc(C(=O)c2sc(Nc3ccc(OC)cc3OC)c(C#N)c2N)cc1 [Compound 26A] | 500 |  |  |
| CN(C)CCOc1ccc(Nc2sc(C(=O)c3ccc(Cl)cc3)c(N)c2C#N)cc1 [Compound 36A] | 1000 |  |  |
| Cc1ccc(Nc2sc(C(=O)c3ccc(Cl)cc3)c(N)c2C#N)cc1 [Compound 14A] | 100 | 70 | inhibition of tubulin polymerization (cell-free) (tubulin): inhibition of tubulin polymerization; IC50 [7]: 80 nM |
| COc1ccc(Nc2sc(C(=O)c3ccc(Br)cc3)c(N)c2C#N)cc1 [Compound 3A] | 20 |  |  |
| N#Cc1ccc(C(=O)c2sc(Nc3ccc4c(c3)OCO4)c(C#N)c2N)cc1 [Compound 20A] | 200 |  |  |
| COc1cccc(C(=O)c2sc(Nc3ccc4c(c3)OCO4)c(C#N)c2N)c1 [Compound 25A] | 500 |  |  |
| NC(=O)c1c(Nc2ccc3c(c2)OCO3)sc(C(=O)c2ccc(Cl)cc2)c1N [Compound 27A, 4-amino-2-(1,3-benzodioxol-5-ylamino)-5-(4-chlorobenzoyl)thiophene-3-carboxamide] | 600 | 200 | IC50 [2]: 300 nM; IC50 [7]: 600 nM |
| COc1ccc(Nc2sc(C(=O)c3ccc(OC)cc3)c(N)c2C#N)cc1 [Compound 12A] | 50 | 40 | IC50 [2]: 30 nM; IC50 [3]: 40 nM; inhibition of tubulin polymerization (cell-free) (tubulin): inhibition of tubulin polymerization; inhibition of tumor growth compared to vehicle [8]: 46%; inhibition in vivo at 200 mg/kg [4, 10]: 66%; IC50 [7]: 40 nM |
| N#Cc1c(Nc2ccc(F)cc2)sc(C(=O)c2ccc(Cl)cc2)c1N [Compound 38A] | 2000 |  |  |
| COc1ccc(C(=O)c2sc(Nc3ccc(OC)cc3OC)c(C#N)c2N)cc1 [Compound 32A] | 1000 |  |  |
